The values that follow come from patent US11912668B2, “GCN2 and perk kinase inhibitors and methods of use thereof” (Deciphera Pharmaceuticals, LLC, priority 2020, dated 2024).

In test [1] the target is PERK oligomers in HEK-293 cells (Homo sapiens (Human), UniProt Q9NZJ5). The test is described as follows: Detection of PERK oligomerization using NanoBRET. To be noted: read-out: EC50 of stimulation of the formation of PERK oligomers. In kind it is cell-based. The procedure:
Constructs for BRET were built using the NanoBRET™ Flexi® PPI Starter System (Promega, Madison, WI). The full-length PERK ORF was obtained from Genscript (Piscataway, NJ). HEK-293 cells (catalog #CRL-1573) were obtained from the American Type Culture Collection (ATTC, Manassas, VA). Cells were grown in MEM medium supplemented with 10% heat-inactivated fetal bovine serum (Invitrogen, Carlsbad, CA) and 1% Penicillin/Streptomycin/L-Glutamine at 37° C., 5% CO2, and 95% humidity. For BRET assays, cells were seeded at a density of 40,000 cells/mL in culture medium in 6-well plates and allowed to attach and recover. Cells were transfected with C-terminally tagged PERK-NLuc and C-terminally tagged PERK-Halo using Lipofectamine LTX (Thermo, Waltham, MA) and allowed to express proteins overnight at 37° C., 5% CO2, and 95% humidity. Cells were then detached from culture dishes using 0.05% trypsin-EDTA, collected, and diluted in assay medium consisting of Opti-MEM® I Reduced Serum Medium supplemented with 4% FBS (Thermo) to 22,000 cells/mL. Cells were dispensed into 96-well cell culture plates and HaloTag® NanoBRET™ 618 Ligand (Promega) was added to a final concentration of 100 nM. […] Donor ([…]) and acceptor (618) emissions were measured on a Synergy Neo2 Multi-Mode Reader (BioTek, Winooski, VT) within 10 min of substrate addition. […]
(BRET reads energy transfer from a luciferase to a nearby fluorophore.)

Test [2] concerns ATF4 in HCT116 colorectal cancer cells. Put plainly: HCT116 amino acid starved (-AA) ATF4 assay (Western blot). It is filed as cell-based. The following applies: Homo sapiens, HCT-116, 4 h. A digest of the protocol: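 HCT116 cells switched to amino-acid-free EBSS (10% dialyzed FBS, 5.5 mM glucose, vitamins) with serial compound dilutions for 4 h at 37° C. Lysates Western blotted for phospho-GCN2 (Thr899), total GCN2, ATF4 and beta-actin; IC50 values derived from quantified bands.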

PERK oligomers in HEK-293 cells, sequence (Q9NZJ5 30-1116): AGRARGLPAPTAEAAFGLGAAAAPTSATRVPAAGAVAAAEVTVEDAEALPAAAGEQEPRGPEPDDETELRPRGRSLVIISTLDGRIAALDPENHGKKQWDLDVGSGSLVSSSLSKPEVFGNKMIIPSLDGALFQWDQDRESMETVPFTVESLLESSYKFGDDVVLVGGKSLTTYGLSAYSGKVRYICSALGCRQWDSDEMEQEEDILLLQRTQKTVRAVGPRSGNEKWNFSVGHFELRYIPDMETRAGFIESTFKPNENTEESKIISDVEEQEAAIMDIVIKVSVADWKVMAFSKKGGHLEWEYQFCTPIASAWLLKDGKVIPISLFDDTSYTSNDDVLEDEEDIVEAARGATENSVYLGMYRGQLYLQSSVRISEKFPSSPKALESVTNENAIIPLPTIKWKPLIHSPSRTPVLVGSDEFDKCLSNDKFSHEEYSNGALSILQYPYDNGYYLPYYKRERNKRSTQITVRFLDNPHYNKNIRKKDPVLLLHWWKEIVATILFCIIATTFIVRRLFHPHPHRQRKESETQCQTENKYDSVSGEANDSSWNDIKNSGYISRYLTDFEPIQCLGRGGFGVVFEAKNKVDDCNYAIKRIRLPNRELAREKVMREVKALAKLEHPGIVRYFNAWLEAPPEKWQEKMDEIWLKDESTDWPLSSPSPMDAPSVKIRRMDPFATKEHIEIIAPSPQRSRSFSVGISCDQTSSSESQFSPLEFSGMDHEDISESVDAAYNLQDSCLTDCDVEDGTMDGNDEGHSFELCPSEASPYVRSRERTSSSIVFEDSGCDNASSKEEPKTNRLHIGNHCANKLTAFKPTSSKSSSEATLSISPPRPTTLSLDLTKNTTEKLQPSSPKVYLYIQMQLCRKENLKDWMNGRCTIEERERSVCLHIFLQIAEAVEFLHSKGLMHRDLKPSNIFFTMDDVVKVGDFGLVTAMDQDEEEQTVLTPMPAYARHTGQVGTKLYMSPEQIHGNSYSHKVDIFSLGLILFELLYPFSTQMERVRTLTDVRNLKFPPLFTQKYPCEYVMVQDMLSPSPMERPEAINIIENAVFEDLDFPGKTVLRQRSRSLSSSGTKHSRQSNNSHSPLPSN
PERK oligomers in HEK-293 cells, sequence (Q9NZJ5 30-1116): as above

Usually EC50 stands for the concentration needed to bring the measured effect to its halfway point. Broadly, the IC50 is the concentration that inhibits the measured activity by half. A lower IC50 goes with greater potency in that assay. Turning to `CNc1ncc2cc(-c3cccc(NS(=O)(=O)c4cc(Cl)cnc4OC)c3F)c(NC)nc2n1` [Compound 16], the EC50 in test [1] amounted to 270 nM. Further, in test [2], the IC50 was at most 100 nM.
